From the Kinase Knowledgebase extract (Sharma et al. 2016)

Columns and labels:
[1] = molecular target: PIK3CA (human) (UniProt P42336); test: Inhibition of Substrate Phosphorylation by PIK3CA; conditions: hct 116,bxpc-3 pancreatic,mda-mb-468, concentration not given here
[2] = molecular target: MAPK14 (human) (UniProt Q16539); test: Inhibition of MAPK14 Kinase Activity
[3] = molecular target: PIK3CA (human) (UniProt P42336); test: Inhibition of PIK3CA Kinase Activity

PIK3CA (human), sequence (P42336 whole entry, looked up): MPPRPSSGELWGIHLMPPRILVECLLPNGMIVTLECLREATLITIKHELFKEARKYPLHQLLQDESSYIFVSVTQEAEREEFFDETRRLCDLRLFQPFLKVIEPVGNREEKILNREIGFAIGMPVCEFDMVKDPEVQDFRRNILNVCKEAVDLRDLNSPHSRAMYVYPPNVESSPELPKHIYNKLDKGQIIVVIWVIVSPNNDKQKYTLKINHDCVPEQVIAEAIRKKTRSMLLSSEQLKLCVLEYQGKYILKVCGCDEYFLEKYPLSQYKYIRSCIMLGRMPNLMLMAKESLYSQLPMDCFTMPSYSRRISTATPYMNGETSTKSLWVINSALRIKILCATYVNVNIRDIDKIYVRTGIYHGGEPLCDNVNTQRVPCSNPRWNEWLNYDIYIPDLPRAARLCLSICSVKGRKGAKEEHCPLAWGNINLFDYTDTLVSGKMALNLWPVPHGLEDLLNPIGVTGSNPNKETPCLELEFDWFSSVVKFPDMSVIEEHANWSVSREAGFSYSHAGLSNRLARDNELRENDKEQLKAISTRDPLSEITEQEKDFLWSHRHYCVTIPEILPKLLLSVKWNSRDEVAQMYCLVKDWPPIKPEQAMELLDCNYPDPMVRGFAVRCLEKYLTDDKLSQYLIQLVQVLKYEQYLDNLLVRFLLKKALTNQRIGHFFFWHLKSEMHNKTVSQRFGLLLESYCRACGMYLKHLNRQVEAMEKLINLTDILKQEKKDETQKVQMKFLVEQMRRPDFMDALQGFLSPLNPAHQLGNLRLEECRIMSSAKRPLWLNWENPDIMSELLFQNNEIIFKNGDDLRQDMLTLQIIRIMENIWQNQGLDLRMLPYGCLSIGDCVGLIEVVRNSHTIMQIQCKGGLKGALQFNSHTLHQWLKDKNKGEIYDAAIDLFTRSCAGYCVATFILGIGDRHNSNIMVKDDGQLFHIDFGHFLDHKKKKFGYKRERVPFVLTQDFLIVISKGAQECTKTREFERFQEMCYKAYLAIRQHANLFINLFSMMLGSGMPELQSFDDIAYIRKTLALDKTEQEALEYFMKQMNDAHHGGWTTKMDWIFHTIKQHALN
MAPK14 (human), sequence (Q16539 whole entry, looked up): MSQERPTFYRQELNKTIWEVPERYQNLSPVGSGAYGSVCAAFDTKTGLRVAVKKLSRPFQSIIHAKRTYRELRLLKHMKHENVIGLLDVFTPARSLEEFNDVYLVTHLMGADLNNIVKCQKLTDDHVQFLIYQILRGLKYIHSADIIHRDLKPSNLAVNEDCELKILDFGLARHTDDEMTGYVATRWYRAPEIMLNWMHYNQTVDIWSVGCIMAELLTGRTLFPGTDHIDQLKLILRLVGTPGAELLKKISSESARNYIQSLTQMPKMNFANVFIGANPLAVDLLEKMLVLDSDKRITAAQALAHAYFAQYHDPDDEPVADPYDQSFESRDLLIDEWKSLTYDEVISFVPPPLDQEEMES

inhibition [1] [%]	IC50 [2] [µM]	IC50 [3] [µM]	SMILES
100	> 100		CCNC(=O)Nc1ccc2ncc(-c3ccc(OC(=O)OCCOC)cc3)nc2n1
	> 100		CCNC(=O)Nc1ccc2ncc(-c3ccc(NC(=O)OCCOC)cc3)nc2n1
	> 100	> 31.6	CCNC(=O)Nc1ccc2ncc(-c3ccc(OC(=O)/C=C/c4ccccc4)cc3)nc2n1
	> 100		CCNC(=O)Nc1ccc2ncc(-c3ccc(OC(=O)OCC(C)C)cc3)nc2n1
70	> 100		CCNC(=O)Nc1ccc(-c2cnc3ccc(NC(=O)NCC)nc3n2)cc1
	> 100		CCNC(=O)Nc1ccc2ncc(-c3ccc(NC(=O)COCCOC)cc3)nc2n1
	> 100		CCNC(=O)Nc1ccc2ncc(-c3ccc(OC(=O)Oc4ccccc4)cc3)nc2n1
	> 100		CCNC(=O)Nc1ccc2ncc(-c3ccc(NC(=O)OC(C)(C)C)cc3)nc2n1
	> 100		CCNC(=O)Nc1ccc2ncc(-c3cccc(OC(=O)OCCOC)c3)nc2n1
50	> 100		CCNC(=O)Nc1ccc2ncc(-c3ccc(OC(=O)OC)cc3)nc2n1

The next lines start with the compound.

SMILES	inhibition [1] [%]	IC50 [2] [µM]	IC50 [3] [µM]
CCOP(=O)(CCCCNC(=O)Nc1ccc2ncc(-c3ccc(O)c(OC)c3)nc2n1)OCC		> 100	
CCNC(=O)Nc1ccc(-c2cnc3ccc(NC(=O)NCC)nc3n2)cn1		> 100	
CCNC(=O)Nc1ccc2ncc(-c3ccc(OC(=O)OCCOC)c(OC)c3)nc2n1	90	> 100	
COCCOC(=O)Oc1ccc(-c2cnc3ccc(NC(=O)NCCCCO)nc3n2)cc1		> 31.6	
CCNC(=O)Nc1ccc2ncc(Nc3ccc(C)c(NS(C)(=O)=O)c3)nc2n1	90		
COc1cc(-c2cnc3ccc(NC(=O)NCCCCP(=O)(O)O)nc3n2)ccc1O		> 100	
CCNC(=O)Nc1ccc2ncc(-c3ccc(OC(=O)N(C)C)cc3)nc2n1		> 100	
CCNC(=O)Nc1ccc2ncc(Nc3ccc(NC(C)=O)cc3)nc2n1		> 100	
